Reference: patent US20030134901A1, “Lipoxin compounds and their use in treating cell proliferative disorders” (priority 1993, published 2003)

Tested on: PLD activity in differentiated HL-60 cells
Test: PLD activity (PEt formation) in differentiated HL-60 cells
Format: cell-based, human
Details: differentiated HL-60 cells, biphasic response
Experimental: Cell cultures and differentiation. HL-60 cells were seeded in RPMI medium supplemented with 100 U/ml penicillin, 100 μg/ml streptomycin, and 10% fetal calf serum (Hyclone, Logan, Utah), incubated at 37° C. with 5% CO2 atmosphere in 250 ml flasks. Individual flasks containing ˜[…] next received dimethyl sulfoxide (DMSO) (1.12% v/v, 120 h) or retinoic acid (RA) (1 μM, 120 h) or phorbol myristate acetate (PMA) (20 nM, 48 h). Before performing binding assays, cells were washed twice in phosphate buffered saline (PBS), Ca^2+- and Mg^2+-free, enumerated and suspended at 20×10^6 cells/ml in Tris buffer (10 mM), pH 7.4 (Fiore, S. et al.(1992) J. Biol. Chem. 267:16168). Nitro blue tetrazolium reduction was performed to monitor induction of polymorphonuclear phenotype as in (Imaizumi, M. and Breitman, T. R. (1986) Blood 67:1273), and cell adherence was determined for induction of macrophage-like phenotype (Collins, S. J. (1987) Blood 70:1273). Human umbilical vein endothelial cells (HUVEC) maintained in culture third passage were obtained from Dr. M. Gimbrone (Brigham and Women's Hospital Department of Pathology).
PLD activity. Human PMN and HL-60 cells (50×10^6 cells/ml) prepared as above were incubated with ^3H-myristic acid or ^3H-palmitic acid (8 μCi/50×10^6 cells) for 40-60 min at 37° C. in PBS. Cell uptake ranged between 60-80% of added label, 7.1±4.2% (n=10; mean ±S.D.) and 32.6±10.3% (n=6; mean ±S.D.) into total phospholipid classes of PMN and HL-60 cells, respectively. Incubations were carried out at 37° C. (10 ×10^6 cells/ml PBS). […] At indicated times, incubations were stopped by adding 3.5 ml of ice cold CHCl3/MeOH (2/5, v/v) containing 1-^14C-arachidonic acid (5,000 cpm) used here as internal standard to quantitate extraction recoveries. […] Regions corresponding to PA, PEt, and internal standards were scraped and quantified by liquid scintillation counting. […] All values reported for PEt formation in Tables 4 and 5 were calculated by subtracting the dpm obtained in the presence of […]. […]

With `CCCCC[C@H](O)/C=C/C=C\C=C\C=C\[C@@H](O)[C@@H](O)CCCC(=O)O` [LXA4, (5S, 6R, 15S)-trihydroxy-7E, 9E, 11Z, 13E-eicosatetraenoic acid] the “concentration of apparent maximum, PEt formation” value was 10^−9 M.
